Laboratory results published in patent US20230017786A1, “DEXTR[…] A DISEASE-MODIFYING TREATMENT FOR NEUROPSYCHIATRIC DISORDERS AND DISEASES” (priority 2020, published 2023).

Legend:
[1] = molecular target: T1, human NMDA receptor GluN1-GluN2A (Homo sapiens, UniProt Q05586+Q12879); assay: FLIPR calcium assay, test item effect on L-glutamate CRC, GluN1-GluN2A-CHO; type: cell-based
T1 construct: expressed in transfected cells; host or cells: CHO

[2] = molecular target: T2, recombinant human NMDAR GluN1 plus GluN2B (Homo sapiens, UniProt Q05586+Q13224); assay: FLIPR calcium assay, gentamicin as PAM (Example 5 Part I), GluN2B cell line; type: cell-based; conditions: 10 μM test item; dextromethadone in presence and absence of 10 μM gentamicin
T2 construct: expressed in transfected cells; host or cells: CHO
Excerpt: (§1) A FLIPR calcium assay was used to profile gentamicin using stable cell lines expressing diheteromeric recombinant human NMDARs, containing GluN1 plus one amongst GluN2A, GluN2B, GluN2C or GluN2D subunit.

[3] = molecular target: T3, recombinant human NMDAR GluN1 plus GluN2C (Homo sapiens, UniProt Q05586+Q14957); assay: FLIPR calcium assay, gentamicin as PAM (Example 5 Part I), GluN2C cell line; type: cell-based; conditions: 10 μM test item; dextromethadone in presence and absence of 10 μM gentamicin
T3 construct: expressed in transfected cells; host or cells: CHO
Excerpt: as §1

[4] = molecular target: T4, human NMDA receptor GluN1-GluN2C (Homo sapiens, UniProt Q05586+Q14957); assay: FLIPR calcium assay, quinolinic acid, gentamicin, dextromethadone (Example 5 Part II), GluN1-GluN2C-CHO; type: cell-based; conditions: 10 μM glycine; for calcium response (mean±SEM): GluN2C, n=42
T4 construct: expressed in transfected cells; host or cells: CHO

[5] = test system: Western diet fed Sprague-Dawley rats, liver; assay: Western diet treated rats, hepatic inflammation, steatosis and lipid metabolism genes; conditions: 10 mg/kg, gastric gavage, 15 days

T1 sequence (Q12879 23-1464, other chains not shown): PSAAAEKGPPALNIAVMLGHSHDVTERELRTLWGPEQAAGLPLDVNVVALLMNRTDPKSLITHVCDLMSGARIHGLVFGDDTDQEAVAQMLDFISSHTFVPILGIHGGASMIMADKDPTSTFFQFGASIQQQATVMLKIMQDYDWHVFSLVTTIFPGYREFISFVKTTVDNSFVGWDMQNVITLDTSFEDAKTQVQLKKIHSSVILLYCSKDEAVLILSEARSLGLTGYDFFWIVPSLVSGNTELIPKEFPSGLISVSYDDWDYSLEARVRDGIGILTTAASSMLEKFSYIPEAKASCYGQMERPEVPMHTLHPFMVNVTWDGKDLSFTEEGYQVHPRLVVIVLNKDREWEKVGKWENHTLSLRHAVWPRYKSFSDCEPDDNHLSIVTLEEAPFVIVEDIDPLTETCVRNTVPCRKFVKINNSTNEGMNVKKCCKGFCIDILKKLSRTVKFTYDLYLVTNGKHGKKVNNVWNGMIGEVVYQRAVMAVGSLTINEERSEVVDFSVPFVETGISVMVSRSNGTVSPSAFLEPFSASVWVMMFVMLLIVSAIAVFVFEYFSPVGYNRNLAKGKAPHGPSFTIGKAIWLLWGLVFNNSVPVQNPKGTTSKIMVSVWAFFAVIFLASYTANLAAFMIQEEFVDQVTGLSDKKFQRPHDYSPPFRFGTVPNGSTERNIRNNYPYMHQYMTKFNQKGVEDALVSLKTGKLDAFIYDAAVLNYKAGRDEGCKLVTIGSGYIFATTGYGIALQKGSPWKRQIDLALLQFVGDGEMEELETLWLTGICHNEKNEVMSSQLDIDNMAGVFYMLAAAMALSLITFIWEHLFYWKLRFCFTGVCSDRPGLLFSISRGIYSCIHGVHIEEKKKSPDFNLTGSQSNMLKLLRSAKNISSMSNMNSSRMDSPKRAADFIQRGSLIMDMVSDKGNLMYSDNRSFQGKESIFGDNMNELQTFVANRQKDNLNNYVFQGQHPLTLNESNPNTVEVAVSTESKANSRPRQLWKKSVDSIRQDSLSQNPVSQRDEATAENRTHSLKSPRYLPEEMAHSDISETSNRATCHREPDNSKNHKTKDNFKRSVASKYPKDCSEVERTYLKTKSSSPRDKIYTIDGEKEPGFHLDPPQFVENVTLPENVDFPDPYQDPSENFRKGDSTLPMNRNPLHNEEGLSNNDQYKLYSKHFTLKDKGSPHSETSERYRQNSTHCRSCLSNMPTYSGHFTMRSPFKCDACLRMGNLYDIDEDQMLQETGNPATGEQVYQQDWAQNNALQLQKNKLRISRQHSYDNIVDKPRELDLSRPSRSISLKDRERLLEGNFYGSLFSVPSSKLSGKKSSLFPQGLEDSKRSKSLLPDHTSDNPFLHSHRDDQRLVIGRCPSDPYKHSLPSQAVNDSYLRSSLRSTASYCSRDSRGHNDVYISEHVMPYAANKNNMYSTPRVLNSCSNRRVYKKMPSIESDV
T2 sequence (Q13224 27-1484, other chains not shown): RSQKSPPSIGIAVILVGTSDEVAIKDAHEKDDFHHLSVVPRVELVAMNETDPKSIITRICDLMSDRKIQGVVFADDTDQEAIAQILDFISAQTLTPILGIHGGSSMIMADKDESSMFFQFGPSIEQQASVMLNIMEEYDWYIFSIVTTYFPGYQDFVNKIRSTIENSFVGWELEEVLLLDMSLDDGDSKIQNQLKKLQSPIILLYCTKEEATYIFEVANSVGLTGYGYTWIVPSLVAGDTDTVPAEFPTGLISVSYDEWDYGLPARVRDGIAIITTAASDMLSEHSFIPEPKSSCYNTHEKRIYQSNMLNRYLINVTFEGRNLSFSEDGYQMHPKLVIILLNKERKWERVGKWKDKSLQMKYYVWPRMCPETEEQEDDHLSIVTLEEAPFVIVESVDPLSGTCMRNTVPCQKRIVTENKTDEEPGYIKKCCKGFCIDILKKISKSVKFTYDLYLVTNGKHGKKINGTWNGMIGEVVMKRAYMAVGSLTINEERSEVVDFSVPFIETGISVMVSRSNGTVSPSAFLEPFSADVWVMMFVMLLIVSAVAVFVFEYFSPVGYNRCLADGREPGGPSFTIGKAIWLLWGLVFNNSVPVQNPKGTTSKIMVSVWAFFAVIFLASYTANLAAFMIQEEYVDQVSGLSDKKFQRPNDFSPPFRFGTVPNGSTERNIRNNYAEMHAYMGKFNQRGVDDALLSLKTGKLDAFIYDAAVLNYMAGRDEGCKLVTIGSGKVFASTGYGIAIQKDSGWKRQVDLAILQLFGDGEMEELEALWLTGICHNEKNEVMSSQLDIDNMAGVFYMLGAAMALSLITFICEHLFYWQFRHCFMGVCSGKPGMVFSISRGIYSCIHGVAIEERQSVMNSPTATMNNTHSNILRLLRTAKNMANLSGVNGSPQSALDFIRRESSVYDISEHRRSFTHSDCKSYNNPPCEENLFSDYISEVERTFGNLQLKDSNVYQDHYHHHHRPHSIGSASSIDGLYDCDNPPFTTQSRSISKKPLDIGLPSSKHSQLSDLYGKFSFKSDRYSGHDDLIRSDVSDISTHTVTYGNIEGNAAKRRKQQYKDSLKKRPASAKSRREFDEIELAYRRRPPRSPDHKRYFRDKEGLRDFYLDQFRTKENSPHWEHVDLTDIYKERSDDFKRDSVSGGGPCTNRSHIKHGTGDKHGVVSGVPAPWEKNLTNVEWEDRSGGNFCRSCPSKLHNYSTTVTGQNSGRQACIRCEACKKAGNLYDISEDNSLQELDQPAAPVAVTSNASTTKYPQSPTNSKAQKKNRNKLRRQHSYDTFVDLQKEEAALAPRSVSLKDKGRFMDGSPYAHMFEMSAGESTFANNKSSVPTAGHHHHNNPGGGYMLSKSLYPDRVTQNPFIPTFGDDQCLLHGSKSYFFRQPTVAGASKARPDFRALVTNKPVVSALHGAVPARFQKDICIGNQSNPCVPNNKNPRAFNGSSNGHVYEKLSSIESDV
T3 sequence (Q14957 20-1233, other chains not shown): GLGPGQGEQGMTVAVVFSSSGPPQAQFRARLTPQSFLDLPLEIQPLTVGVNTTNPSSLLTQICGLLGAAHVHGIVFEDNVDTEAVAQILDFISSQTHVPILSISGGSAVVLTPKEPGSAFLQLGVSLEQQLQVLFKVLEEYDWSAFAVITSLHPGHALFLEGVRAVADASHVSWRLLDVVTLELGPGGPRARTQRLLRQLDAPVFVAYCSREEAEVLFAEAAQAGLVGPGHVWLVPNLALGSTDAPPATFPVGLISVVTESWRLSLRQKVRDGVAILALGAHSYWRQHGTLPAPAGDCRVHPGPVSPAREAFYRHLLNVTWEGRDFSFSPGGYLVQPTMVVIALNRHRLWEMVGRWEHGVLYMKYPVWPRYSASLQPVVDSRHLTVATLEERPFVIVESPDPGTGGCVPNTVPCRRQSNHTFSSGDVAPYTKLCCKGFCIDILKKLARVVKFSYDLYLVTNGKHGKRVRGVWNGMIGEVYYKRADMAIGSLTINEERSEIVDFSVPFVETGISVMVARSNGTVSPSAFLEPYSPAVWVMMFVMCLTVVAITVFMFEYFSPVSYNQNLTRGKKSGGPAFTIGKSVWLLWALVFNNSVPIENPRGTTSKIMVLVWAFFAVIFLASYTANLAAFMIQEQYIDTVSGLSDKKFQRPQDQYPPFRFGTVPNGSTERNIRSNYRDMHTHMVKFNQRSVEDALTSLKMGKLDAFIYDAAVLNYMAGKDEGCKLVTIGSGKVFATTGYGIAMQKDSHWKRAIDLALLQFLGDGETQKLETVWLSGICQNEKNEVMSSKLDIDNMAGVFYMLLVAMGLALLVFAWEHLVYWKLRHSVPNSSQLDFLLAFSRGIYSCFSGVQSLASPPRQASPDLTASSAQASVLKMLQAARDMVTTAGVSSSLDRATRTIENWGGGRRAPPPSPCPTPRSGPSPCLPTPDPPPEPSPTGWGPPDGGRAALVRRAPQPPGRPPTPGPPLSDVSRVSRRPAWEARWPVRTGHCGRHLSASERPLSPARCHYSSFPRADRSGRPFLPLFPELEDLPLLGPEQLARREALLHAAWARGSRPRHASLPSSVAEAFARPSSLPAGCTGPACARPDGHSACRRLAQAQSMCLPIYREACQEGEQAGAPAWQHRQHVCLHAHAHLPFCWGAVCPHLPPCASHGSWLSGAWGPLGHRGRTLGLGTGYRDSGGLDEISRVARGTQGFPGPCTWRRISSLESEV
T4 sequence (Q14957 20-1233, other chains not shown): as above

CCC(=O)C(C[C@H](C)N(C)C)(c1ccccc1)c1ccccc1 [Dextromethadone, dextromethadone]
α, estimated cooperativity term ([1]; operational analysis for allosteric modulators): 0.22 | L-glutamate CRC HillSlope ([1]; with test item 49 nM): 1.0 | L-glutamate CRC LogEC50 ([1]; with test item 49 nM): −6.7 | L-glutamate CRC HillSlope ([1]; with test item 195 nM): 1.1 | L-glutamate CRC LogEC50 ([1]; with test item 195 nM): −6.6 | L-glutamate CRC HillSlope ([1]; with test item 781 nM): 1.1 | L-glutamate CRC LogEC50 ([1]; with test item 781 nM): −6.6 | L-glutamate CRC HillSlope ([1]; with test item 3.1 μM): 1.0 | L-glutamate CRC LogEC50 ([1]; with test item 3.1 μM): −6.6 | L-glutamate CRC HillSlope ([1]; with test item 12.5 μM): 1.0 | L-glutamate CRC LogEC50 ([1]; with test item 12.5 μM): −6.4 | L-glutamate CRC HillSlope ([1]; with test item 50 μM): 1.4 | L-glutamate CRC LogEC50 ([1]; with test item 50 μM): −6.4 | calcium entry induced by 0.04 μM L-glutamate [2]: significantly reduced | calcium entry induced by 0.2 μM L-glutamate [2]: significantly reduced | calcium entry induced by 10 μM L-glutamate [2]: significantly reduced | calcium entry induced by 0.04 μM L-glutamate [3]: significantly reduced | calcium entry induced by 0.2 μM L-glutamate [3]: significantly reduced | calcium entry induced by 10 μM L-glutamate [3]: significantly reduced | calcium response (mean±SEM) ([4]; 0.04 μM L-Glu + 10 μM DXT): 1.6 ± 0.4 | calcium response (mean±SEM) ([4]; 0.04 μM L-Glu + 100 μM QA + 10 μM DXT): −2.5 ± 0.7 | calcium response (mean±SEM) ([4]; 0.04 μM L-Glu + 1000 μM QA + 10 μM DXT): −8.6 ± 1.5 | calcium response (mean±SEM) ([4]; 0.2 μM L-Glu + 10 μM DXT): 13 ± 0.7 | calcium response (mean±SEM) ([4]; 0.2 μM L-Glu + 100 μM QA + 10 μM DXT): 7.7 ± 0.6 | calcium response (mean±SEM) ([4]; 0.2 μM L-Glu + 1000 μM QA + 10 μM DXT): −3.8 ± 0.9 | % effect on calcium entry, 100 QA + 10 DXT ([4]; 100 μM QA + 10 μM DXT): −3.3 ± 0.5% | calcium response (mean±SEM) ([4]; 1000 μM QA + 10 μM DXT): −8.0 ± 0.4 | % effect on calcium entry, 1000 QA + 10 DXT ([4]; 1000 μM QA + 10 μM DXT): −8.0 ± 0.4% | calcium response (mean±SEM) ([4]; 1000 μM QA + 10 μg/ml GENT + 10 μM DXT): −11 ± 0.9 | calcium response (mean±SEM) ([4]; Table 41: 0.04 μM L-Glu + 10 μM DXT): 1.6 ± 0.4 | calcium response (mean±SEM) ([4]; Table 43: 0.2 μM L-Glu + 10 μM DXT): 13 ± 0.7 | CCL2 gene expression in liver (qRT-PCR) [5]: didn't affect significantly this increase | GPAT4 gene expression in liver (qRT-PCR) [5]: significant drop of their expression | IL-6 gene expression in liver (qRT-PCR) [5]: able to counteract this effect | IL-10 gene expression in liver (qRT-PCR) [5]: able to counteract this effect | SREPB2 gene expression in liver (qRT-PCR) [5]: significant drop of their expression | hepatic steatosis, histology [5]: reduction of steatosis
